Data published in ChEMBL document CHEMBL3792311, “In vitro and in vivo activity of ML302F: a thioenolate inhibitor of VIM-subfamily metallo -lactamases” (Medchemcomm, 2016).
Calls of active or inactive are those of the source. The calls are words filed in the database; no cut-off is given here.

Experiments:
Pseudomonas aeruginosa [1] = test: Potentiation of meropenem-induced antibacterial activity against VIM2 carbapenemase producing multidrug-resistant Pseudomonas aeruginosa 14 clinical isolate assessed as MIC of meropenem at 1:8 meropenem:compound ratio by broth microtiter dilution method; type: functional
Klebsiella pneumoniae [2] = test: Potentiation of meropenem-induced antibacterial activity against VIM1 carbapenemase producing multidrug-resistant Klebsiella pneumoniae GR54 clinical isolate assessed as MIC of meropenem at 1:8 meropenem:compound ratio by broth microtiter dilution method; type: functional
Klebsiella pneumoniae [3] = test: Potentiation of meropenem-induced antibacterial activity against VIM1 carbapenemase producing multidrug-resistant Klebsiella pneumoniae 177 clinical isolate assessed as MIC of meropenem at 1:8 meropenem:compound ratio by broth microtiter dilution method; type: functional
Pseudomonas aeruginosa [4] = test: Potentiation of meropenem-induced antibacterial activity against VIM2 carbapenemase producing multidrug-resistant Pseudomonas aeruginosa GR57 clinical isolate infected in Galleria mellonella larvae assessed as survival rate at 4.8 mg/kg measured at 96 hrs; type: functional; details: GR57, 96 h
Klebsiella pneumoniae [5] = test: Potentiation of meropenem-induced antibacterial activity against VIM4 carbapenemase producing multidrug-resistant Klebsiella pneumoniae 101 clinical isolate assessed as MIC of meropenem at 1:8 meropenem:compound ratio by broth microtiter dilution method; type: functional
Pseudomonas aeruginosa [6] = test: Potentiation of meropenem-induced antibacterial activity against VIM2 carbapenemase producing multidrug-resistant Pseudomonas aeruginosa 3 clinical isolate at 1:8 meropenem:compound ratio by checkerboard method; type: functional
Pseudomonas aeruginosa [7] = test: Antibacterial activity against VIM2 carbapenemase producing multidrug-resistant Pseudomonas aeruginosa 50 clinical isolate up to 512 mg/L by broth microtiter dilution method; type: functional, organism-based
Klebsiella pneumoniae [8] = test: Antibacterial activity against VIM1 carbapenemase producing multidrug-resistant Klebsiella pneumoniae 177 clinical isolate up to 512 mg/L by broth microtiter dilution method; type: functional, organism-based
Pseudomonas aeruginosa [9] = test: Potentiation of meropenem-induced antibacterial activity against VIM2 carbapenemase producing multidrug-resistant Pseudomonas aeruginosa GR64 clinical isolate at 1:8 meropenem:compound ratio by checkerboard method; type: functional
Klebsiella oxytoca [10] = test: Potentiation of meropenem-induced antibacterial activity against VIM4 carbapenemase producing multidrug-resistant Klebsiella oxytoca 95 clinical isolate at 1:8 meropenem:compound ratio by checkerboard method; type: functional
Pseudomonas aeruginosa [11] = test: Potentiation of meropenem-induced antibacterial activity against VIM2 carbapenemase producing multidrug-resistant Pseudomonas aeruginosa 12 clinical isolate assessed as MIC of meropenem at 1:8 meropenem:compound ratio by broth microtiter dilution method; type: functional
Klebsiella pneumoniae [12] = test: Potentiation of meropenem-induced antibacterial activity against VIM4 carbapenemase producing multidrug-resistant Klebsiella pneumoniae 120 clinical isolate at 1:8 meropenem:compound ratio by checkerboard method; type: functional
Pseudomonas aeruginosa [13] = test: Potentiation of meropenem-induced antibacterial activity against VIM2 carbapenemase producing multidrug-resistant Pseudomonas aeruginosa 14 clinical isolate at 1:8 meropenem:compound ratio by checkerboard method; type: functional
Pseudomonas aeruginosa [14] = test: Potentiation of meropenem-induced antibacterial activity against VIM2 carbapenemase producing multidrug-resistant Pseudomonas aeruginosa 30 clinical isolate assessed as MIC of meropenem at 1:8 meropenem:compound ratio by broth microtiter dilution method; type: functional
Pseudomonas aeruginosa [15] = test: Antibacterial activity against VIM2 carbapenemase producing multidrug-resistant Pseudomonas aeruginosa GR64 clinical isolate up to 512 mg/L by broth microtiter dilution method; type: functional, organism-based
Klebsiella pneumoniae [16] = test: Potentiation of meropenem-induced antibacterial activity against VIM1 carbapenemase producing multidrug-resistant Klebsiella pneumoniae GR54 clinical isolate at 1:8 meropenem:compound ratio by checkerboard method; type: functional
Pseudomonas aeruginosa [17] = test: Potentiation of meropenem-induced antibacterial activity against VIM2 carbapenemase producing multidrug-resistant Pseudomonas aeruginosa 3 clinical isolate assessed as MIC of meropenem at 1:8 meropenem:compound ratio by broth microtiter dilution method; type: functional
Klebsiella oxytoca [18] = test: Potentiation of meropenem-induced antibacterial activity against VIM4 carbapenemase producing multidrug-resistant Klebsiella oxytoca 95 clinical isolate assessed as MIC of meropenem at 1:8 meropenem:compound ratio by broth microtiter dilution method; type: functional
Pseudomonas aeruginosa [19] = test: Potentiation of meropenem-induced antibacterial activity against VIM2 carbapenemase producing multidrug-resistant Pseudomonas aeruginosa 9 clinical isolate at 1:8 meropenem:compound ratio by checkerboard method; type: functional
Enterobacter cloacae = test: Antibacterial activity against VIM4 carbapenemase producing multidrug-resistant Enterobacter cloacae 102 clinical isolate up to 512 mg/L by broth microtiter dilution method; type: functional, organism-based
[20] = Inhibition of beta-lactamase VIM-2 (unknown origin)
Pseudomonas aeruginosa [21] = test: Potentiation of meropenem-induced antibacterial activity against VIM2 carbapenemase producing multidrug-resistant Pseudomonas aeruginosa GR57 clinical isolate infected in Galleria mellonella larvae assessed as relative risk of survival at 4.8 mg/kg measured at 96 hrs relative to control; type: functional
Klebsiella oxytoca [22] = test: Potentiation of meropenem-induced antibacterial activity against VIM4 carbapenemase producing multidrug-resistant Klebsiella oxytoca 126 clinical isolate at 1:8 meropenem:compound ratio by checkerboard method; type: functional
Klebsiella pneumoniae [23] = test: Potentiation of meropenem-induced antibacterial activity against VIM4 carbapenemase producing multidrug-resistant Klebsiella pneumoniae 196 clinical isolate assessed as MIC of meropenem at 1:8 meropenem:compound ratio by broth microtiter dilution method; type: functional
Pseudomonas aeruginosa [24] = test: Antibacterial activity against VIM2 carbapenemase producing multidrug-resistant Pseudomonas aeruginosa 9 clinical isolate up to 512 mg/L by broth microtiter dilution method; type: functional, organism-based
Klebsiella pneumoniae [25] = test: Potentiation of meropenem-induced antibacterial activity against VIM4 carbapenemase producing multidrug-resistant Klebsiella pneumoniae 120 clinical isolate infected in Galleria mellonella larvae assessed as relative risk of survival at 4.8 mg/kg measured at 96 hrs relative to control; type: functional
Klebsiella oxytoca [26] = test: Potentiation of meropenem-induced antibacterial activity against VIM4 carbapenemase producing multidrug-resistant Klebsiella oxytoca 126 clinical isolate assessed as MIC of meropenem at 1:8 meropenem:compound ratio by broth microtiter dilution method; type: functional
Klebsiella pneumoniae [27] = test: Antibacterial activity against VIM4 carbapenemase producing multidrug-resistant Klebsiella pneumoniae 101 clinical isolate up to 512 mg/L by broth microtiter dilution method; type: functional, organism-based
Klebsiella pneumoniae [28] = test: Potentiation of meropenem-induced antibacterial activity against VIM4 carbapenemase producing multidrug-resistant Klebsiella pneumoniae 128 clinical isolate at 1:8 meropenem:compound ratio by checkerboard method; type: functional

Structure (SMILES): O=C(O)/C(S)=C/c1c(Cl)ccc(Cl)c1Cl
- MIC (Pseudomonas aeruginosa [1]): 2 µg/mL
- MIC (Klebsiella pneumoniae [2]): 4 µg/mL
- MIC (Klebsiella pneumoniae [3]): 1 µg/mL
- survival at 4.8 mg/kg (Pseudomonas aeruginosa [4]): 81%
- MIC (Klebsiella pneumoniae [5]): 2 µg/mL
- fractional inhibitory concentration index (FICI) (Pseudomonas aeruginosa [6]): 0.25
- Activity (Pseudomonas aeruginosa [7]): inactive
- Activity (Klebsiella pneumoniae [8]): inactive
- fractional inhibitory concentration index (FICI) (Pseudomonas aeruginosa [9]): 0.19
- fractional inhibitory concentration index (FICI) (Klebsiella oxytoca [10]): 0.38
- MIC (Pseudomonas aeruginosa [11]): 32 µg/mL
- fractional inhibitory concentration index (FICI) (Klebsiella pneumoniae [12]): 0.25
- fractional inhibitory concentration index (FICI) (Pseudomonas aeruginosa [13]): 0.06
- MIC (Pseudomonas aeruginosa [14]): 8 µg/mL
- Activity (Pseudomonas aeruginosa [15]): inactive
- fractional inhibitory concentration index (FICI) (Klebsiella pneumoniae [16]): 0.09
- MIC (Pseudomonas aeruginosa [17]): 8 µg/mL
- MIC (Klebsiella oxytoca [18]): 8 µg/mL
- fractional inhibitory concentration index (FICI) (Pseudomonas aeruginosa [19]): 0.38
- Activity (Enterobacter cloacae): inactive
- IC50 [20]: 300 nM
- fold change (FC) (Pseudomonas aeruginosa [21]): 0.28
- fractional inhibitory concentration index (FICI) (Klebsiella oxytoca [22]): 0.19
- MIC (Klebsiella pneumoniae [23]): 1 µg/mL
- Activity (Pseudomonas aeruginosa [24]): inactive
- fold change (FC) (Klebsiella pneumoniae [25]): 0.7
- MIC (Klebsiella oxytoca [26]): 4 µg/mL
- Activity (Klebsiella pneumoniae [27]): inactive
- fractional inhibitory concentration index (FICI) (Klebsiella pneumoniae [28]): 0.27
